Assay results as given in ChEMBL document CHEMBL3886540, “Orally available viridiofungin derivative possessing anti-HCV activity” (2016).

How the values were obtained:
Cytochrome P450 3A4 [1] = biological target: T1, Cytochrome P450 3A4 (Homo sapiens, UniProt P08684); assay: (§1) CYP Inhibition Assay (With Preincubation): With Preincubation: To a 96 deep well plate was added 2.5 uL of the test substance solution (x200 concentration), and 442.5 uL of Incubation Mixture, and the solution was mixed and warmed to 37° C. for 5 minutes. To this incubation solution 50 uL of 10 mM NADPH was added and preincubated at 37° C. for 30 minutes. […] After the reaction, 100 uL of the Incubation Mixture was removed, added to 150 uL of isopropanol containing IS and mixed. […] The filtrate was used for LC-MS/MS analysis.
Cytochrome P450 2C9 [2] = biological target: T2, Cytochrome P450 2C9 (Homo sapiens, UniProt P11712); assay: as §1
Cytochrome P450 3A4 [3] = biological target: T1, Cytochrome P450 3A4; assay: (§2) CYP Inhibition Assay (Without Preincubation): Without Preincubation: To a 96 deep well plate was added 2.5 uL, of the test substance solution (x200 concentration), 442.5 uL of Incubation Mixture, and 5 uL of the substrate solution, and the solution was mixed and warmed to 37° C. for 5 minutes. To this incubation solution 50 uL of 10 mM NADPH was added to start the reaction, and incubated at 37° C. for 5 minutes. After the incubation, 100 uL of the Incubation Mixture was removed, added to 150 uL of isopropanol containing IS and mixed. […] The filtrate was used for LC-MS/MS analysis.
Cytochrome P450 2C9 [4] = biological target: T2, Cytochrome P450 2C9; assay: as §2

T2 sequence (P11712 whole entry): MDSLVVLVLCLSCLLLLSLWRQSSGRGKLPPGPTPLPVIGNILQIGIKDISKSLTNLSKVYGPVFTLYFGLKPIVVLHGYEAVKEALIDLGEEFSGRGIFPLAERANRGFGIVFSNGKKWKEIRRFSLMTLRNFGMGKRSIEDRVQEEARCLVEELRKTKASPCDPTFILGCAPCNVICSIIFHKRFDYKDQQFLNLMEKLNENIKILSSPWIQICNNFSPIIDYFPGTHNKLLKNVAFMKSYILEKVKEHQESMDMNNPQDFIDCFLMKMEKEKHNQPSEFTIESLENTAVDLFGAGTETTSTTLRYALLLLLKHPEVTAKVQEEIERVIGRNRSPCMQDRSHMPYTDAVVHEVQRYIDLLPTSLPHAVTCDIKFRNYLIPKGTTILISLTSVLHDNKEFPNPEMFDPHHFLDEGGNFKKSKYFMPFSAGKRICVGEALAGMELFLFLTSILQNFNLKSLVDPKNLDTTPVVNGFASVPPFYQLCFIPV
T1 sequence (P08684 whole entry): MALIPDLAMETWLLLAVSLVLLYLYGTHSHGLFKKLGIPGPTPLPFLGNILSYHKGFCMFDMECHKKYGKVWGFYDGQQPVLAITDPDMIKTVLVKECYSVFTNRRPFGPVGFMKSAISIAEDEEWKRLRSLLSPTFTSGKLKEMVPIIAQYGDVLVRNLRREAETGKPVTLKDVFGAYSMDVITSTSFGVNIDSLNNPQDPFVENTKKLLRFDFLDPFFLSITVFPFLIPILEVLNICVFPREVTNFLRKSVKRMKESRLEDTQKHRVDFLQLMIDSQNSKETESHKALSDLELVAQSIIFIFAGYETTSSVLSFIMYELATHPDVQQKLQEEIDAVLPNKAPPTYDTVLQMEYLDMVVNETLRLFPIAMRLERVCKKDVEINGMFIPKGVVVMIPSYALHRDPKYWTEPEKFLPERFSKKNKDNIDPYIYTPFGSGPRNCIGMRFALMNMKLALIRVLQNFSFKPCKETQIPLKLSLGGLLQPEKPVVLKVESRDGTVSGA

Structure (SMILES)	IC50 (Cytochrome P450 3A4 [1]) [µM]	IC50 (Cytochrome P450 2C9 [2]) [µM]	IC50 (Cytochrome P450 3A4 [3]) [µM]	IC50 (Cytochrome P450 2C9 [4]) [µM]
CCCCCCCC(F)(F)CCCCCC/C=C/[C@H](C(O)N[C@@H](Cc1ccc(OCCCC)cc1)C(=O)O)[C@@](O)(CCOC)C(=O)O (stereo partly drawn)	11.8	24.4	16.2	12.5
CCCCCCCC(F)(F)CCCCCC/C=C/[C@H](C(O)N[C@@H](Cc1ccc(OCCCC)cc1)C(=O)OC)[C@@](O)(CCOC)C(=O)O (stereo partly drawn)	11.9	19.6	23.8	7.7
